From US20220064196A1, “EGFR Inhibitors, Compositions and Methods Thereof” (Betta Pharmaceuticals Co., Ltd., priority 2019, published 2022)
Read-outs that look alike come from different tables or passages of the source.

Tests used:
EGFR L858R/T790M/C797S = EGFR L858R/T790M/C797S (Homo sapiens, UniProt P00533, C797S/L858R/T790M); test: Kinase assay (mobility shift), EGFR L858R/T790M/C797S; type: biochemical
EGFR Del19/T790M/C797S = EGFR Del19/T790M/C797S (Homo sapiens, UniProt P00533, T790M/C797S, form not given); test: Kinase assay (mobility shift), EGFR Del19/T790M/C797S; type: biochemical
Chain of EGFR Del19/T790M/C797S (P00533 with tags, fused parts or gaps DEL746-750/T790M/C797S, form open): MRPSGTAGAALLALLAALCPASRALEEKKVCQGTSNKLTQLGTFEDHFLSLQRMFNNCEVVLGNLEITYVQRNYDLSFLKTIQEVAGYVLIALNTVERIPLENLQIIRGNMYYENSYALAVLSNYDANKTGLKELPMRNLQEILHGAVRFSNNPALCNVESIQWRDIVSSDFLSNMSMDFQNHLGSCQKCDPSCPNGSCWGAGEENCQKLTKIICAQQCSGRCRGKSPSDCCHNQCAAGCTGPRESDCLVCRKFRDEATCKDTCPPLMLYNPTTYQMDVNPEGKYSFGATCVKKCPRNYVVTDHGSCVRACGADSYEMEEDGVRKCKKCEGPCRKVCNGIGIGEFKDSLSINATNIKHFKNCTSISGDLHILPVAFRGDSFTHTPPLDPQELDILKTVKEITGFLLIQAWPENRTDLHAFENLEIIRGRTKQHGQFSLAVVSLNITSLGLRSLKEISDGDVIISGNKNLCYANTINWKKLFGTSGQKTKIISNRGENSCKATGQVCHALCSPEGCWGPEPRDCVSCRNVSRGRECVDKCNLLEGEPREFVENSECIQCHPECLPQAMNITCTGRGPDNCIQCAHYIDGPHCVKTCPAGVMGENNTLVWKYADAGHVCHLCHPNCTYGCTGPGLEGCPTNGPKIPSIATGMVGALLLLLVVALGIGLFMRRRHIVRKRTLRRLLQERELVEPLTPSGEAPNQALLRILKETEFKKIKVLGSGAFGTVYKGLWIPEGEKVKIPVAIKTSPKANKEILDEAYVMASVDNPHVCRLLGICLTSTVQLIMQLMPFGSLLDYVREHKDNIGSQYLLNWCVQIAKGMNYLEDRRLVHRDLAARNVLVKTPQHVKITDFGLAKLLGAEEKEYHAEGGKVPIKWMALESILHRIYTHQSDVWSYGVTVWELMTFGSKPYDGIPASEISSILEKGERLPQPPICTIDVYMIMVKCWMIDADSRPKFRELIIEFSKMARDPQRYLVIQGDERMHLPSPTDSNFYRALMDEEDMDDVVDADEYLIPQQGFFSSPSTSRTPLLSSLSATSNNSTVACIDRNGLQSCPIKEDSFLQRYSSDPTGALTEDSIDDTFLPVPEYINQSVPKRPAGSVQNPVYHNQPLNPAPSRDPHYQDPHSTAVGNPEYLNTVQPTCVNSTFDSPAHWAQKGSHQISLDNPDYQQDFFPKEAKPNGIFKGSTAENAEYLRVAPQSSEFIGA
Protocol: (§1) Test 1 Kinase Assay for EGFR Del19/T790M/C797S and EGFR Wildtype
(§2) Enzyme reaction protocol are as follows:
(§3) 1. Preparing 1* Kinase buffer as followed.
(§4) 2. Preparing Compound Concentration Gradient: Compounds were tested at a concentration of 300 nM, diluted to 100-fold final concentration in 100% DMSO solution in 96-well plates, and compounds were diluted 3 times with Precision, 10 concentrations. Each concentration of the compound was then further diluted to a 5-fold final concentration of the intermediate dilution solution using 1* Kinase buffer.
(§5) 3.5 μL of each of the prepared intermediate dilution compounds was separately added to the compound wells of the 384-well plate, and each concentration was tested for duplicate wells; 5 μL of 5% DMSO was added to the negative control wells and the positive control wells, respectively.
(§6) 4. 2.5-fold final concentration of the kinase solution was prepared using 1*Kinase buffer.
(§7) 5. Add 10 μL of 2.5-fold final concentration of kinase solution to the compound well and positive control well; add 10 μL of 1*Kinase buffer to the negative control well.
(§8) 6. Centrifuge at 1000 rpm for 30 seconds, shake the reaction plate and incubate for 10 minutes at room temperature.
(§9) 7. A mixed solution of 2.5 times the final concentration of ATP and Kinase substrate (5-FAM-EEPLYWSFPAKKK-CONH2) was prepared using 1*Kinase buffer.
(§10) 8. 10 μL of a 2.5-fold final concentration of a mixed solution of ATP and a substrate was added to initiate the reaction.
(§11) 9. Centrifuge the 384-well plate at 1000 rpm for 30 seconds, mix by shaking, and incubate at room temperature for the corresponding time.
(§12) 10. Add 30 μL of the stop solution to stop the kinase reaction, centrifuge at 1000 rpm for 30 seconds, and mix by shaking.
(§13) 11. Read the conversion rate with Caliper EZ Reader.
(§14) Convert conversion values to inhibition values:
(§15) Percent inhibition 32 (max-conversion)/(max-min)*100.
(§16) “max” stands for the mean value of the positive control well ratio; “min” stands for the mean value of the negative control well.
(§17) Fit the data in log(inhibitor) vs. response Variable slope of GraphPad Prism 5 to obtain IC50 values.
(§18) Equation used is: Y=Bottom+(Top-Bottom)/(1+(IC50/X)^HillSlope)

EGFR WT = EGFR WT (Homo sapiens, UniProt P00533); test: Kinase assay (mobility shift), EGFR wildtype; type: biochemical; conditions: top concentration 300 nM
Chain of EGFR WT (P00533 25-1210): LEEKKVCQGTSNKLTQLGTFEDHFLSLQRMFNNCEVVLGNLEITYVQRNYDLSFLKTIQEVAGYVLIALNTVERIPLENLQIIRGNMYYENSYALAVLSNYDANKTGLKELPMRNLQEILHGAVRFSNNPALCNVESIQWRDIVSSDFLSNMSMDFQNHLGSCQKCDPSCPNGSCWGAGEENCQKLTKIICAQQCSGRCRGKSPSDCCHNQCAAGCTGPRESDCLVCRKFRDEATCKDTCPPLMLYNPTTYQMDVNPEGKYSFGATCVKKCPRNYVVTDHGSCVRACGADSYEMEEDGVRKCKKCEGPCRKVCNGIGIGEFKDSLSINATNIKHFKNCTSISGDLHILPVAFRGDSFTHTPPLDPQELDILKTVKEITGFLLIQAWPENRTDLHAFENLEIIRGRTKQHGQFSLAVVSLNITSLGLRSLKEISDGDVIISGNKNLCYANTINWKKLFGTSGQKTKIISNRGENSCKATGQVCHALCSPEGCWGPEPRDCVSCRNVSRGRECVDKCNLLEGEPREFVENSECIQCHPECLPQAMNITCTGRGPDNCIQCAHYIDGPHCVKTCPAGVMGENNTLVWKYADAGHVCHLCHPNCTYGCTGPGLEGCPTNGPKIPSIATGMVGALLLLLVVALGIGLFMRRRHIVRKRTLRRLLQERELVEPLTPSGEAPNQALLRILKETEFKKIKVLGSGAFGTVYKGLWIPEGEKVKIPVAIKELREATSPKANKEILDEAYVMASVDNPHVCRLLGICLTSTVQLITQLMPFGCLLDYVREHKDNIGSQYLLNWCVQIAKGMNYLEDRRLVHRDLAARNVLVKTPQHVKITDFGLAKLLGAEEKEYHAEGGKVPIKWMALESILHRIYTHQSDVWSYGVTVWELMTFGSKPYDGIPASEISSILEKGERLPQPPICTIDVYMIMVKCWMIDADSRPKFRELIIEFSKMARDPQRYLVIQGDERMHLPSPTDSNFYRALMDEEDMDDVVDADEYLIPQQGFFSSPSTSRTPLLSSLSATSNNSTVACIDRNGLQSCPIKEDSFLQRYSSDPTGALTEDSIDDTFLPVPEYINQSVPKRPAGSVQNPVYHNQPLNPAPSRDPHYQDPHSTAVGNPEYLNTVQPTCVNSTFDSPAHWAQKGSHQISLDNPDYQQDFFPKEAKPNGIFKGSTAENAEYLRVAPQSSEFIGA
Protocol: as §1, §2, §3, §4, §5, §6, §7, §8, §9, §10, §11, §12, §13, §14, §15, §16, §17, §18

Ba/F3-Del19/T790M/C797S = Ba/F3-Del19/T790M/C797S (Homo sapiens, UniProt P00533, T790M/C797S, cells depend on it, form not given); test: Ba/F3-Del19/T790M/C797S cells proliferation assay (CellTiter Glo); type: cell-based; conditions: cell proliferation, 72 h, read-out: Ba/F3-Del19/T790M/C797S IC50
Outline: (§19)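 Ba/F3 cells carrying EGFR Del19/T790M/C797S or L858R/T790M/C797S seeded at 2000 cells/well and exposed 72 h at 37 °C to compound (1000 nM top, 3-fold series, 0.5% DMSO). Viability read by CellTiter-Glo luminescence; IC50 from four-parameter non-linear regression.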

Ba/F3-L858R/T790M/C797S = Ba/F3-L858R/T790M/C797S (Homo sapiens, UniProt P00533, T790M/C797S/L858R, cells depend on it); test: Ba/F3-L858R/T790M/C797S cells proliferation assay (CellTiter Glo); type: cell-based; conditions: cell proliferation, 72 h, read-out: Ba/F3-L858R/T790M/C797S IC50
Chain of Ba/F3-L858R/T790M/C797S (P00533 whole entry T790M/C797S/L858R): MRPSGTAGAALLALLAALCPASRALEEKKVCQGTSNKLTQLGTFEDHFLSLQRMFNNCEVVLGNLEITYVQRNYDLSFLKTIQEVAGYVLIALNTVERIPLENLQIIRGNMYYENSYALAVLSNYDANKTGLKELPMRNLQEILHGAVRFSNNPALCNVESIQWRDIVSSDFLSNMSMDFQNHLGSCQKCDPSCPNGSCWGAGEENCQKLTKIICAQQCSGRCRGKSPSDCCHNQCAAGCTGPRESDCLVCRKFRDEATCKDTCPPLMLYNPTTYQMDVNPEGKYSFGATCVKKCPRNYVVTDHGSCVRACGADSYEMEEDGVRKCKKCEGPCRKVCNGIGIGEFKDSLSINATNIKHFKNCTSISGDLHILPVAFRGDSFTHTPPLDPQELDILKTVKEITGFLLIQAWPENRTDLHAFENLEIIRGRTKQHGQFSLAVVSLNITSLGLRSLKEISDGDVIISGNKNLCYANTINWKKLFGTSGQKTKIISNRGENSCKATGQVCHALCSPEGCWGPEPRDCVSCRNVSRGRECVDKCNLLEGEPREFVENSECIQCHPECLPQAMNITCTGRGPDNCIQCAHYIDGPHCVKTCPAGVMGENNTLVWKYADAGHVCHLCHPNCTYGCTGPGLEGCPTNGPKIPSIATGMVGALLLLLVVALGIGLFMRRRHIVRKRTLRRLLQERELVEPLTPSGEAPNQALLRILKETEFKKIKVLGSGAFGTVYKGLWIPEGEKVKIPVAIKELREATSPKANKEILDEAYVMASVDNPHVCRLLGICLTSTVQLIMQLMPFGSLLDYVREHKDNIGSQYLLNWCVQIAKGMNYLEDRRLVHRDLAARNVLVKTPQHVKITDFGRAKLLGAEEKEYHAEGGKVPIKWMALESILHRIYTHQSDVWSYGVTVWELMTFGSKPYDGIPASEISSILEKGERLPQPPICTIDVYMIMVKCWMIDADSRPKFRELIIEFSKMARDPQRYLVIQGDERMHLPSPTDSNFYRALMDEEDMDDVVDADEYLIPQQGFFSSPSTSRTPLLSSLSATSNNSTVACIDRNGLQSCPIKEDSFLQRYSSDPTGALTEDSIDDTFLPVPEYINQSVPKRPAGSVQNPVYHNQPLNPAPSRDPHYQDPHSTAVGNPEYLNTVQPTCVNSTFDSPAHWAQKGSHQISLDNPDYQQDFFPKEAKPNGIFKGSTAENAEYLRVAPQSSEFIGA
Outline: as §19

A431 (WT) = test: A431 cells proliferation assay (CellTiter Glo); type: cell-based; conditions: Homo sapiens, A-431; cell proliferation, 72 h
Protocol: Test 4 A431 Cells Proliferation Assay
DMEM and 10% FBS and 1% PS.
a) The medium was preheated in a 37° C. water bath in advance.
b) Remove the cryogenic vials from the liquid nitrogen tank, quickly put it into a 37° C. water bath, and completely melt it in 1 min.
c) Transfer the cell suspension to a 15 mL centrifuge tube containing 8 mL medium, centrifuge 1000 rpm, 5 min.
d) Discard the supernatant, resuspend the cells in 1 mL medium, and transfer to a 75 cm^2 flask containing 15 mL medium, culture the cells in an incubator at 37° C., 5% CO2.
b) Collect cell to a 15 mL centrifuged tube, centrifuge at 1000 rpm for 5 min. Discard the supernatant, count, and make the cell density at 1×10^4 cells/mL, then place it in a 37° C., 5% CO2 incubator.
a) The test compound (20 mM stock solution) was diluted to 2 mM with 100% DMSO as starting concentration then 3-fold serial diluted with “9+0” concentrations. in a 96-well dilution plate (Cat # P-05525, Labcyte);
b) The above compound solution was diluted 1:40 times with culture medium to prepare a 5 fold working solution;
a) Take cells in log phase growth, centrifuge at 1000 rpm for 5 min, then resuspend the cells with culture medium, then count cells;
b) Cells were seeded to 96-well cell culture plate with density at 5000 cells/well;
a) Compounds prepared at step 2 were added to cell plate with 40 μL per well, the final concentrations were 10000, 3333,1111.1, 370.4, 123.5, 41.2, 13.7, 4.6, 1.5 and 0 nM, and the final concentration of DMSO was 0.5%. The blank control well was a culture medium (0.5% DMSO);
b) The cells were incubated for an additional 72 h in the incubator.
a) Remove the 96-well cell culture plate and add 60 μl of CTG reagent (CellTiter Glo kit, promega, Cat # G7573).
b) Plate was shaked for 2 min and then let it cool for 10 min at room temperature.
c) The Luminescence signal value was read using a PerkinElmer reader.
Experimental Data Analysis
Data were analyzed using GraphPad Prism 6.0 software to obtain a fitted curve of compound activity.
Fit the Compound IC50 from non-linear regression equation:
Y=Bottom+(Top-Bottom)/(1+10((LogIC50-X)×HillSlope));
X: The log of the concentration of the compound; Y: Luminescence value.
The cells proliferation assay results are expressed with IC50, shown as Table 3.

[1] = Pharmacokinetic assay, oral administration; type: in vivo; conditions: rat, male SD rats, plasma
Protocol: Test 5 Pharmacokinetic Assay
Male SD rats, oral administration (intragastric administration), 3 in each group. Animals administered by gavage were fasted overnight before the experiment, and the fasting time was from at least 12 hours before administration to 4 hours after administration. The blood was collected using the orbital vein. Time of blood collection by oral administration: 15 min, 30 min, 1 h, 2 h, 4 h, 7 h, 24 h. The blood collection volume was 300 uL, and after anticoagulation with 2.0% EDTA, the blood was centrifuged at 4000 rpm for 5 min, and the blood plasma was taken for about 100 uL, and placed in −20° C. for examination. The plasma sample was analyzed using liquid chromatography tandem mass spectrometry (LC-MS/MS). Plasma concentration-time data for individual animals were analyzed using WinNonlin (V4.1, Pharsight) software with a non-compartmental model and the pharmacokinetic parameters of the test compounds were calculated.

[2] = p.o. 10 mg/kg, formulation 5% DMSO/5% Solutol/90% normal saline
[3] = p.o. 5 mg/kg, formulation differs per row

Chain of EGFR L858R/T790M/C797S (P00533 25-1210 T790M/C797S/L858R): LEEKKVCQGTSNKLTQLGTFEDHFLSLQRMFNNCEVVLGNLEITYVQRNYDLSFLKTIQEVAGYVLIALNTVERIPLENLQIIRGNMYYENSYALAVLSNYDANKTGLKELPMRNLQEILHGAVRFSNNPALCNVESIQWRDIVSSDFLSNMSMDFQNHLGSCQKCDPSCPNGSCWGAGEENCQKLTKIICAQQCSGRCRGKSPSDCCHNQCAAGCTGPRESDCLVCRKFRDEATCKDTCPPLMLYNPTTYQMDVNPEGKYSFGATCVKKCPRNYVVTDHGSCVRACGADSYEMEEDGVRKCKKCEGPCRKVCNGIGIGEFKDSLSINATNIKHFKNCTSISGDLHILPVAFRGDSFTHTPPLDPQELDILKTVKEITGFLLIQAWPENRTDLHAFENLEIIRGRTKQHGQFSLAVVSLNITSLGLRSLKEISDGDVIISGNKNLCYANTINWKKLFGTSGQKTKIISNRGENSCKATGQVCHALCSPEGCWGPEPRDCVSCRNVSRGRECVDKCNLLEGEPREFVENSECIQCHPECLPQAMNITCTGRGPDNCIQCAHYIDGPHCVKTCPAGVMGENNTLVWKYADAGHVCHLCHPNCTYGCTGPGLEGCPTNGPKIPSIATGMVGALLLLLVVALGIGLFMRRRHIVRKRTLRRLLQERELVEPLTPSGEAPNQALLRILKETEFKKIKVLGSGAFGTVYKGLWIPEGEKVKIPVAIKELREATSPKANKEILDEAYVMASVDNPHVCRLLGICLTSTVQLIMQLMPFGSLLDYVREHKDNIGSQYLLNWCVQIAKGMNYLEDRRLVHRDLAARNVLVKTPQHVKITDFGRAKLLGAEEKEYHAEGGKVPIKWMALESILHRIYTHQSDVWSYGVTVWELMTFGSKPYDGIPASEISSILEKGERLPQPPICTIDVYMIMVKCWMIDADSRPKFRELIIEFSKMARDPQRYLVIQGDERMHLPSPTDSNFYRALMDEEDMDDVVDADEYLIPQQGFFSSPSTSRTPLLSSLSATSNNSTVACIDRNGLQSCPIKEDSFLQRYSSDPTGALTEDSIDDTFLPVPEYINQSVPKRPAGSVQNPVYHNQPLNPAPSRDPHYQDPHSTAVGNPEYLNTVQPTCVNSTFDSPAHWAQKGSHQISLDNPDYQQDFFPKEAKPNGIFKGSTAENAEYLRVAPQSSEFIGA

Compound | IC50 (EGFR L858R/T790M/C797S; class symbols) [nM] | IC50 (EGFR Del19/T790M/C797S) [nM] | IC50 (EGFR WT) [nM] | GI50 (Ba/F3-Del19/T790M/C797S; numeric values) [nM] | GI50 (Ba/F3-L858R/T790M/C797S; numeric values) [nM] | IC50 (A431 (WT)) [nM] | AUC(0-t) [1, 2] [ng·h/mL] | Cmax [1, 2] [ng/mL] | Tmax [1, 2] [h] | half-life [1, 2] [h] | IC50 (EGFR L858R/T790M/C797S; numeric values) [nM] | GI50 (Ba/F3-Del19/T790M/C797S; class symbols) [nM] | GI50 (Ba/F3-L858R/T790M/C797S; class symbols) [nM] | AUC(0-t) [1, 3] [ng·h/mL] | Cmax [1, 3] [ng/mL] | Tmax [1, 3] [h] | half-life [1, 3] [h]
Cc1cc(Nc2ncc(Cl)c(Nc3ccccc3P(C)(C)=O)n2)ccc1N1CC2(CCC(N(C)C)CC2)C1 [Example 1, (2-((5-chloro-2-((4-(7-(dimethylamino)-2-azaspiro[3.5]nonan-2-yl)-3-methylphenyl)amino)pyrimidin-4-yl)amino)phenyl)dimethylphosphine oxide] | ≤ 2 | 0.9 | 43 | 5.8 | 6 | 48.8 | 1540 | 141 | 1.67 | 6.53 | – | – | – | – | – | – | –
Cc1cc(Nc2ncc(Cl)c(Nc3ccccc3P(C)(C)=O)n2)ccc1N1CC2(CCC(NC3CC3)CC2)C1 [Example 4, (2-((5-chloro-2-((4-(7-(cyclopropylamino)-2-azaspiro[3.5]nonan-2-yl)-3-methylphenyl)amino)pyrimidin-4-yl)amino)phenyl)dimethylphosphine oxide] | – | 1 | 21 | – | – | 26.9 | – | – | – | – | 1.5 | ≤ 10 | 10 to 50 | 1020 | 71.3 | 6 | 6.27
CN(C)C1CC2(CCN(c3ccc(Nc4ncc(Cl)c(Nc5ccccc5P(C)(C)=O)n4)cc3Cl)CC2)C1 [Example 6, (2-((5-chloro-2-((3-chloro-4-(2-(dimethylamino)-7-azaspiro[3.5]nonan-7-yl)phenyl)amino)pyrimidin-4-yl)amino)phenyl)dimethylphosphine oxide] | – | 0.37 | – | – | – | 44.7 | – | – | – | – | 1.3 | 10 to 50 | 10 to 50 | 8810 | 741 | 4 | 3
CP(C)(=O)c1ccccc1Nc1nc(Nc2ccc(N3CCC4(CC3)CC(N)C4)c(Cl)c2)ncc1Cl [Example 8, (2-((2-((4-(2-amino-7-azaspiro[3.5]nonan-7-yl)-3-chlorophenyl)amino)-5-chloropyrimidin-4-yl)amino)phenyl)dimethylphosphine oxide] | – | 0.58 | – | 21.5 | 17.3 | 57.5 | – | – | – | – | 1.6 | – | – | 2820 | 388 | 2.08 | 3.17
Cc1cc(Nc2ncc(Cl)c(Nc3ccccc3P(C)(C)=O)n2)ccc1N1CCC2(CC1)CC(N)C2 [Example 14, (2-((2-((4-(2-amino-7-azaspiro[3.5]nonan-7-yl)-3-methylphenyl)amino)-5-chloropyrimidin-4-yl)amino)phenyl)dimethylphosphine oxide] | – | 0.31 | 27 | 13.2 | 15.1 | 17.5 | – | – | – | – | 1.2 | – | – | – | – | – | –
